Experimental data as given in patent US20080207695A1, “Thrombin Inhibiting 2-Oxo-1,2,5,6-Tetrahydropyridine Derivatives” (ASTRAZENECA AB, priority 2005, published 2008).

Key:
[1] = Test F: in vitro (liver microsome) stability, human liver microsomes; type: in vitro ADME; details: liver microsomes from humans, NADPH, 37° C.
Description: (§1) Determination of In Vitro (Liver Microsome) Stability
(§2) Liver microsomes are prepared from Sprague-Dawley rats and human liver samples according to internal SOPs. The compounds are incubated at 37° C. at a total microsome protein concentration of 0.5 mg/mL in a 0.1 mol/L potassium phosphate buffer at pH 7.4, in the presence of the cofactor, NADPH (1.0 mmol/L). The initial concentration of compound is 1.0 μmol/L. Samples are taken for analysis at 5 time points, 0, 7, 15, 20 and 30 minutes after the start of the incubation. The enzymatic activity in the collected sample is immediately stopped by adding an equal volume of acetonitrile containing 0.8% formic acid. The concentration of compound remaining in each of the collected samples is determined by means of LC-MS/MS. The elimination rate constant (k) of the thrombin inhibitor is calculated as the slope of the plot of ln[Thrombin inhibitor] against incubation time (minutes). The elimination rate constant is then used to calculate the half-life (T1/2) of the thrombin inhibitor, which is subsequently used to calculate the intrinsic clearance (CLint) of the thrombin inhibitor in liver microsomes as: […]

[2] = Test F: in vitro (liver microsome) stability, rat liver microsomes; type: in vitro ADME, Sprague-Dawley rats; details: liver microsomes from rats, NADPH, 37° C.
Description: as §1, §2

Row | Compound | conversion to the corresponding active inhibitor (title compound of Example 1) [1] | conversion to the corresponding active inhibitor (title compound of Example 1) [2]
1 | CC(=O)OCc1nc(N)cc(C)c1CNC(=O)CC1=C(C)CCN(NCC(F)(F)c2ccccn2)C1=O [Example 2, (6-Amino-3-{[({1-[(2,2-difluoro-2-pyridin-2-ylethyl)amino]-4-methyl-2-oxo-1,2,5,6-tetrahydropyridin-3-yl}acetyl)amino]methyl}-4-methylpyridin-2-yl)-methyl acetate] | converted to the corresponding active inhibitor | converted to the corresponding active inhibitor
2 | CC1=C(CC(=O)NCc2c(C)cc(N)nc2COC(=O)c2ccccc2)C(=O)N(NCC(F)(F)c2ccccn2)CC1 [Example 3, (6-Amino-3-{[({1-[(2,2-difluoro-2-pyridin-2-ylethyl)amino]-4-methyl-2-oxo-1,2,5,6-tetrahydropyridin-3-yl}acetyl)amino]methyl}-4-methylpyridin-2-yl)-methyl benzoate] | converted to the corresponding active inhibitor | converted to the corresponding active inhibitor
